According to PMC5608352, “Formyl peptide derived lipopeptides disclose differences between the receptors in mouse and men and call the pepducin concept in question” (PLoS ONE, 2017):
“Also recorded” adds a separate entry of the source. Residues, ends and D or L forms follow the SMILES beside them. No end group written: not given here. *: point of attachment. Palmitoyl = CCCCCCCCCCCCCCCC(=O)*

Assays:
[1] = tested on: FPR1; assay: Inhibition of fMLF-induced superoxide release, human neutrophils; assay type: cell-based; details: pepducin 1 μM; fMLF 50 nM
Description: (§1) Human peripheral blood neutrophils were isolated from buffy coats from healthy blood donors using dextran sedimentation and Ficoll-Paque gradient centrifugation as described. The remaining erythrocytes were disrupted by hypotonic lysis and the neutrophils were washed twice, suspended in KRG and, stored on melting ice until use. This isolation process permits cells to be purified with minimal granule mobilization. The buffy coats were obtained from the blood bank at Sahlgrenska University Hospital. Ethics approval was not needed since the buffy coats were provided anonymously and could not be traced back to a specific individual. This is in line with Swedish legislation section code 4§ 3p SFS 2003:460 (Lag om etikprövning av forskning som avser människor).
(§2) NADPH-oxidase activity was determined using an isoluminol and HRP-enhanced chemiluminescence (CL) system that allow for the determination of superoxide production. The CL activity was measured in a six-channel Biolumat LB 9505 apparatus (Berthold Co., Wildbad, Germany), using disposable 4-mL polypropylene tubes with 1 mL reaction mixture. […] The light emission was recorded continuously over time and presented as superoxide production (in arbitrary light units, cpm x10^-6) as a function of time (min). The activity before stimulus addition was recorded as basal line and this activity was not changed in vehicle control samples. […]

[2] = biological target: T1, FPR2 (Homo sapiens, UniProt P25090); assay: Inhibition of WKYMVM-induced superoxide release, human neutrophils; assay type: cell-based; details: pepducin 1 μM pre-incubated (mF2Pal16, F1Pal16: 5 min); WKYMVM 50 nM
T1 construct: Human peripheral blood neutrophils were isolated from buffy coats from healthy blood donors; endogenous in cells; host or cells: human peripheral blood neutrophils from buffy coats of healthy donors
T1 sequence (P25090 1-351): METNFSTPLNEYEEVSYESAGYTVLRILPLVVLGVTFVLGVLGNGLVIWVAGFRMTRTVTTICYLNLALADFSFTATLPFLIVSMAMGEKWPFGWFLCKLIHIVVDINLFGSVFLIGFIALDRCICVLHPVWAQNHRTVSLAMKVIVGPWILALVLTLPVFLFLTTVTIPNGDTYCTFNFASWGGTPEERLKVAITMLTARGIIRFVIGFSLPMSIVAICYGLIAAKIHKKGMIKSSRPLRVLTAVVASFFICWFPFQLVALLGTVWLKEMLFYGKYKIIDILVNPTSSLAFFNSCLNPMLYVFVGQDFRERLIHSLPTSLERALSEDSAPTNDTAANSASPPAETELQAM
Description: as §1
NADPH-oxidase activity was determined using an isoluminol and HRP-enhanced chemiluminescence (CL) system that allow for the determination of superoxide production. The CL activity was measured in a six-channel Biolumat LB 9505 apparatus (Berthold Co., Wildbad, Germany), using disposable 4-mL polypropylene tubes with 1 mL reaction mixture. The tubes contained 4 U HRP and 10 μg/mL isoluminol together with the cells that were equilibrated in the Biolumat for 5 min at 37°C, after which the stimulus solution (100 μL) was added. The light emission was recorded continuously over time and presented as superoxide production (in arbitrary light units, cpm x10^-6) as a function of time (min). The activity before stimulus addition was recorded as basal line and this activity was not changed in vehicle control samples. […]
Data analysis was performed using Graph Pad Prism 7.0. The EC50/IC50 values were determined from experiments in which the activities were normalized to the response induced by maximal response or induced by agonist in the absence of inhibitor. […]
Human neutrophils (10^5 cells) were pre-incubated without (solid line) or with mF2Pal16 (1 μM) for 5 min before stimulation with A) the FPR2 specific agonist WKYMVM (50 nM, indicated by the arrow). […] The release of superoxide anions was measured continuously. […]

[3] = biological target: T2, mouse neutrophils (Mus musculus, UniProt O88536); assay: Direct activation: superoxide release (isoluminol/HRP chemiluminescence), WT mouse bone marrow neutrophils; assay type: cell-based
T2 sequence (O88536 1-351): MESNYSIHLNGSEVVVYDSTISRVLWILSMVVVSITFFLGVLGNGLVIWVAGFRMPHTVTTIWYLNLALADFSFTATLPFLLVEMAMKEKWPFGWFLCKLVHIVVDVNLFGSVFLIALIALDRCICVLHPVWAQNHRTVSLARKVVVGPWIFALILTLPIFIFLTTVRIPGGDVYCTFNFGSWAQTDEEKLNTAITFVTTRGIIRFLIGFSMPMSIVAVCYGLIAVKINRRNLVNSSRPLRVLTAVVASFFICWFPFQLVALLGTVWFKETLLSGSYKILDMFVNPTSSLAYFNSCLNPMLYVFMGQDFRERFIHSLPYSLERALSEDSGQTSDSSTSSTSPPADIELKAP
Description: Mice (8–12 weeks of age) were killed by cervical dislocation, the femurs and tibias were removed and freed of soft tissue attachments, and the extreme distal tip of each extremity was cut off. KRG without Ca^2+ and Mg^2+ (KRG-) was forced through the bone by using a 1-mL syringe with a 27-gauge needle. After dispersing cell clumps and removing the debris, the bone marrow granulocytes were isolated according to an earlier described procedure with some modifications. Briefly, a cell suspension in 2 mL of KRG- was laid on top of a three-layer Percoll gradient (1.095, 1.085, and 1.070 g/mL). The density of each Percoll solution was verified using density marker beads. After centrifugation at 500 × g for 30 min at 4°C in a swinging bucket rotor, the lowest band (1.085/1.095 g/mL interface) was collected as the neutrophil fraction. After washing with KRG-, remaining red blood cells were eliminated by hypotonic lysis. After a final wash with KRG-, the cells were resuspended in KRG. The cell number and population of bone marrow cells were determined by flow cytometry based on forward scatter (size) and side scatter (density) localization.
NADPH-oxidase activity was determined using an isoluminol and HRP-enhanced chemiluminescence (CL) system that allow for the determination of superoxide production. The CL activity was measured in a six-channel Biolumat LB 9505 apparatus (Berthold Co., Wildbad, Germany), using disposable 4-mL polypropylene tubes with 1 mL reaction mixture. The tubes contained 4 U HRP and 10 μg/mL isoluminol together with the cells that were equilibrated in the Biolumat for 5 min at 37°C, after which the stimulus solution (100 μL) was added. The light emission was recorded continuously over time and presented as superoxide production (in arbitrary light units, cpm x10^-6) as a function of time (min). The activity before stimulus addition was recorded as basal line and this activity was not changed in vehicle control samples. Since the FPR/Fpr-mediated superoxide production with respect to the onset and decline are very similar, the peak activities were used to compare the responses induced.
Naïve bone marrow cells produce very low levels of superoxide upon stimulation and to increase this production the cells were routinely primed for one hour at RT followed by TNF-α (10 ng/mL, final concentration) priming for a period of 20 min at 37°C [10]. The cells were then kept on ice until further analysis, as described above. The reason for choosing the chemiluminescence based NADPH-oxidase assay system was that very few cells are required, allowing us to monitor and quantify receptor-mediated events with the limited number of mouse bone marrow neutrophils available.
Data analysis was performed using Graph Pad Prism 7.0. The EC50/IC50 values were determined from experiments in which the activities were normalized to the response induced by maximal response or induced by agonist in the absence of inhibitor. The statistical analysis was performed on raw data using Student’s t-test when two groups were compared or one-way ANOVA with Dunnett’s multiple comparisons test in comparison to the control response when three groups were compared. * p ≤ 0.05 was considered significant.

[4] = tested on: human neutrophils; assay: Direct activation: superoxide release (isoluminol/HRP chemiluminescence), human neutrophils; assay type: cell-based; details: 10^5 cells, 37°C, isoluminol/HRP CL, pepducin 1 μM
Description: as §1, §2

[5] = biological target: T3, Fpr2 (Mus musculus, UniProt O88536); assay: Receptor preference in mouse neutrophils (Fpr2 versus Fpr1); assay type: cell-based; details: conclusion from superoxide release, Fpr2^-/- cells, desensitization and inhibitors
T3 construct: WT mouse neutrophils (5 x 10^4 cells) were pre-incubated without (solid line) or with mF2Pal16; endogenous in cells; host or cells: bone marrow neutrophils of C57BL/6 wild-type mice, TNF-alpha primed
T3 sequence (O88536 1-351): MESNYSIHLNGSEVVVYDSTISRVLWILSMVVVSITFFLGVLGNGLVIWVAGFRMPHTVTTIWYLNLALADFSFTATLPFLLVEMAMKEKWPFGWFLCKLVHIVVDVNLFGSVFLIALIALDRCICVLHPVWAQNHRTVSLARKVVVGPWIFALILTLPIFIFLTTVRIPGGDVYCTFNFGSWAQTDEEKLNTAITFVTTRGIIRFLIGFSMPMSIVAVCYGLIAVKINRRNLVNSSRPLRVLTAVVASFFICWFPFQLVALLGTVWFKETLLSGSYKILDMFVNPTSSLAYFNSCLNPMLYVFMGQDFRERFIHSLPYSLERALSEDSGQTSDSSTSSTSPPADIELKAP
Description: (§3) C57BL/6 wild-type mice were purchased from Charles River Laboratories and Fpr2^−/− mice generated as described previously, were generously provided by Dr Ji Ming Wang, Frederick National Laboratory for Cancer Research, USA. Mice were kept under standard temperature and light conditions and fed laboratory chow and water ad libitum, at the Department of Rheumatology and Inflammation Research, University of Gothenburg. Sex matched WT and Fpr2^-/- animals (age 8–10 weeks) were used to isolated bone marrow derived neutrophils. The studies performed were approved by the Ethical Committee for Animal Experimentation, Göteborg, Sweden.
(§4) Mice (8–12 weeks of age) were killed by cervical dislocation, the femurs and tibias were removed and freed of soft tissue attachments, and the extreme distal tip of each extremity was cut off. […] The cell number and population of bone marrow cells were determined by flow cytometry based on forward scatter (size) and side scatter (density) localization.
(§5) NADPH-oxidase activity was determined using an isoluminol and HRP-enhanced chemiluminescence (CL) system that allow for the determination of superoxide production. The CL activity was measured in a six-channel Biolumat LB 9505 apparatus (Berthold Co., Wildbad, Germany), using disposable 4-mL polypropylene tubes with 1 mL reaction mixture. […]

[6] = biological target: T2, mouse neutrophils; assay: Receptor (cross-)desensitization, superoxide release, WT mouse neutrophils; assay type: cell-based; details: then pepducin 1 μM
Description: NADPH-oxidase activity was determined using an isoluminol and HRP-enhanced chemiluminescence (CL) system that allow for the determination of superoxide production [29, 30]. The CL activity was measured in a six-channel Biolumat LB 9505 apparatus (Berthold Co., Wildbad, Germany), using disposable 4-mL polypropylene tubes with 1 mL reaction mixture. The tubes contained 4 U HRP and 10 μg/mL isoluminol together with the cells that were equilibrated in the Biolumat for 5 min at 37°C, after which the stimulus solution (100 μL) was added. The light emission was recorded continuously over time and presented as superoxide production (in arbitrary light units, cpm x10^-6) as a function of time (min). […] Since the FPR/Fpr-mediated superoxide production with respect to the onset and decline are very similar, the peak activities were used to compare the responses induced.
The release of superoxide anions was continuously measured. […]

[7] = tested on: FPR2; assay: Receptor preference in human neutrophils (FPR2 versus FPR1); assay type: cell-based; details: conclusion from superoxide release experiments
Description: as §1, §2

[8] = tested on: Fpr2^-/- neutrophils; assay: Direct activation: superoxide release, Fpr2^-/- mouse neutrophils compared with WT; assay type: cell-based; details: pepducin 1 μM; % of peak fMIFL (10 nM) response; p ≤ 0.05 significant
Description: as §3, §4, §5

[9] = tested on: FPR2; assay: Inhibition of F2Pal16 (FPR2 activating pepducin)-induced superoxide release, human neutrophils; assay type: cell-based; details: PBP10 1 μM or CysH 1 μM, 5 min pre-incubation; F2Pal16 1 μM; five experiments
Description: as §1, §2

[10] = biological target: T3, Fpr2; set-up: method as in PMID 27614010; details: ref [12]; cited from earlier work
Description: When looking at the FPRs in different species it is clear that the receptor family has a complex evolutionary history, as illustrated by the fact that the number of genes in the family vary markedly in mouse and man. […] As different mouse models constitute important tools for translational studies aiming to understa ... || Genetically modified mouse strains and mouse disease models provide excellent tools to study the function of neutrophil FPRs in vivo. Such studies have indicated Fprs (in particular Fpr2) as important regulators of the physiological processes leading to resolution of inflammation. However, a direct translation of mouse data to human studies is hampered due to the distant phylogenetic relationship between mouse and human receptors. In addition to the different number of Fpr genes in mice and humans and an incomplete understanding of the evolutionary relationship between human FPRs ...

[11] = biological target: formyl peptide receptor Fpr2, mouse (mouse (endogenous in bone marrow neutrophils)) (UniProt O88536)
[12] = biological target: formyl peptide receptor Fpr2, mouse (mouse (endogenous in bone marrow neutrophils)) (UniProt O88536); remark: listed apart in the source

## CCCCCCCCCCCCCCCC(=O)N[C@@H](CCCCN)C(=O)N[C@H](C(=O)N[C@@H](Cc1c[nH]cn1)C(=O)N[C@@H](CCCNC(=N)N)C(=O)N[C@@H](CCC(N)=O)C(=O)NCC(=O)N[C@@H](CC(C)C)C(=O)N[C@H](C(=O)N[C@@H](CCCCN)C(=O)N[C@@H](CO)C(=O)N[C@@H](CO)C(=O)N[C@@H](CCCNC(=N)N)C(=O)N1CCC[C@H]1C(=O)N[C@@H](CC(C)C)C(=O)N[C@@H](CCCNC(=N)N)C(=O)N[C@H](C(=O)O)C(C)C)[C@@H](C)CC)[C@@H](C)CC [mF1Pal16] (Palmitoyl-KIHRQGLIKSSRPLRV-OH; N-terminus and C-terminus assumed)
[1]
  effect on fMLF response, human neutrophils: did not affect the response
[2]
  effect on WKYMVM response, human neutrophils: inhibited the response
[3]; WT mouse (C57BL/6) bone marrow neutrophils, TNF-α primed, 5 x 10^4 cells, 37°C, isoluminol/HRP CL, peak activity, pepducin 1 μM in figures
  superoxide release / activation of WT mouse neutrophils: triggered activation of the NADPH-oxidase in mouse neutrophils
[3]; compared in words with derivatives or other pepducins, 1 μM in Figs 3, 6C, % of fMIFL (10 nM) peak, three independent experiments
  relative potency, activation of WT mouse neutrophils: much lower EC50 value as compared to that of F1Pal16
[4]
  superoxide release / activation of human neutrophils: Human neutrophils were not activated; also recorded: does not activate human neutrophils to produce superoxide
[5]
  receptor preference / modulation of Fpr2 (versus Fpr1) in mouse neutrophils: activates primarily Fpr2 in mouse neutrophils; also recorded: positively target the mouse Fpr2; also recorded: can act as an agonist for Fpr2
[6]; first PSMα2 50 nM
  response to second stimulation after PSMα2: non-responsive to a second stimulation
[6]; first fMIFL 10 nM
  response to second stimulation after fMIFL: not fMIFL-stimulated cells were non-responsive
[7]
  receptor preference / modulation of FPR2 (versus FPR1) in human neutrophils: very similar activities but with somewhat different potency; also recorded: preference for FPR2 over FPR1; also recorded: inhibits the FPR2 activity in human neutrophils; also recorded: negatively target human FPR2
[8]
  superoxide release in Fpr2^-/- neutrophils compared with WT: not abolished but significantly reduced

## Cyclosporin H
[9]
  effect of inhibitor on F2Pal16 response, human neutrophils: not by the FPR1 inhibitor cyclosporine H
[10]
  activity at mouse Fprs (earlier work): lack effects on their mouse counterparts

## Palmitoyl-KIHKQGLIKSSRPLRV [F1Pal16 pepducin (Pal-…)]
[11]
  EC50 of superoxide release by wild-type mouse neutrophils, dose-response of F1Pal16: 300 nM

## Palmitoyl-KIHKKGMIKSSRPLRV [F2Pal16 pepducin (Pal-…)]
[12]
  EC50 of superoxide release by wild-type mouse neutrophils, dose-response of F2Pal16 (maximum at 1 uM): 300 nM
